The results in this text go back to publication PMC4788259 (PLoS Neglected Tropical Diseases, 2016).

The subject of the experiment is E. multilocularis metacestodes. The experiment in a line: PGI assay: phosphoglucose isomerase release from damaged metacestodes. The note with it: 10 μM, 5 days, single wells, relative to DB1127 (10 μM). The format is cell-based, Echinococcus multilocularis. The method, then: The preparation of E. multilocularis metacestode material (strain H95) from intraperitoneally (i.p.) infected BALB/c mice was performed as described earlier. Metacestode vesicles were used for in vitro drug screening when they reached 2 to 4 mm in diameter.
For screening of the Malaria Box against E. multilocularis metacestodes, the PGI screening assay was applied that measures the release of the enzyme phosphoglucose isomerase (PGI) upon physical impairment of metacestodes. The screening setup was done in 24 well plates as described by Stadelmann et al. For initial screening, each drug was applied at 10 μM to metacestodes in single wells. As a positive control-drug, the dicationic diguanidino compound DB1127 (10 μM) was used and 0.1% DMSO was added as negative control. Metacestodes were cultured in the presence of the compounds for 5 days, after which PGI release was quantified exactly as stated in Stadelmann et al. […] Averages, standard deviations and EC50 values were calculated in Microsoft Excel 2010.
For the compound `COc1ccc(CCNC(=O)c2cc(S(=O)(=O)N3CC(C)CC(C)C3)ccc2Sc2ccc(F)cc2)cc1OC` (stereo not drawn) [MMV007557], the “PGI (% of DB1127 at 10 uM)” value was found to be 14.98%.

`CCCc1c(CC)c(=N)c2ccccc2n1C` [MMV008416]: the “PGI (% of DB1127 at 10 uM)” value is on record as -40.39%.

Turning to `CCn1c(CN2CCN(Cc3ccccc3)CC2)nc2cc(NC(=O)c3cccs3)ccc21` [MMV020439], the “PGI (% of DB1127 at 10 uM)” value was -13.64%.

`Br.Cc1ccc(C)c(-c2csc(Nc3ccc(C)c(C)c3)n2)c1` [MMV007654]: the “PGI (% of DB1127 at 10 uM)” value was determined as 3.26%.

With `CC1CCN(Cc2c(O)ccc3cc(-c4nc5ccccc5s4)c(=O)oc23)CC1` [MMV009127], the “PGI (% of DB1127 at 10 uM)” value is on record as 0.35%.

With `CCN(CC)CCCNc1nc(-c2ccc(Cl)cc2)nc2ccccc12` [MMV665961], the “PGI (% of DB1127 at 10 uM)” value was -34.32%.

With `CC1CCCCN1CCCNC(=O)c1ccc2c(c1)sc1nc(-c3ccc(F)cc3)cn12` (stereo not drawn) [MMV000634], the “PGI (% of DB1127 at 10 uM)” value is listed as -120.82%.

Take `CCCn1c(=N)c(C(=O)NC2CCCCC2)cc2c(=O)n3cccc(C)c3nc21` [MMV008829]: the “PGI (% of DB1127 at 10 uM)” value is on record as -2.96%.

Consider `CCCC(c1nnnn1C1CCCCC1)N1CCN(C(=O)c2ccco2)CC1.Cl` (stereo not drawn) [MMV666093], for which the “PGI (% of DB1127 at 10 uM)” value is recorded as -0.54%.

For the compound `Cl.Oc1ccccc1CNCC12CC3CC(CC(C3)C1)C2` [MMV020788], the “PGI (% of DB1127 at 10 uM)” value is on record as -57.58%.

As for `CCOC(=O)C1=C(c2ccccc2)N=c2sc(=Cc3cc(C)n(-c4ccc(F)cc4)c3C)c(=O)n2C1c1cccc(OC)c1OC` (stereo not drawn) [MMV666601], the “PGI (% of DB1127 at 10 uM)” value is listed as -52.06%.

In the case of `Cc1ccc2nc(C)cc(Nc3cccc(C(F)(F)F)c3)c2c1.Cl` [MMV000326], the “PGI (% of DB1127 at 10 uM)” value is reported as 7.52%.

With `O=C(NC1CCCCC1)C(c1cccs1)N(CCc1ccccc1)C(=O)c1ccco1` (stereo not drawn) [MMV666106], the “PGI (% of DB1127 at 10 uM)” value came to 2.06%.

As to `CCOC(=O)c1cnc2c(C)cc(C)cc2c1Nc1ccc(OC)c(OC)c1` [MMV008294], the “PGI (% of DB1127 at 10 uM)” value is -43.41%.

As to `Cc1ccccc1OCCSc1nc2ccc(NC(=O)c3ccccc3)cc2s1` [MMV007577], the “PGI (% of DB1127 at 10 uM)” value is recorded as -17.47%.

Consider `N=c1c2ccccc2nnn1-c1cccc(C(F)(F)F)c1` [MMV665923], for which the “PGI (% of DB1127 at 10 uM)” value worked out at 18.29%.

With `Nc1nc(Nc2cccc(F)c2)nc2ccccc12` [MMV080034], the “PGI (% of DB1127 at 10 uM)” value is -19.84%.

`COc1ccc2nc(C)cc(Nc3ccccc3O)c2c1` [MMV274073]: the “PGI (% of DB1127 at 10 uM)” value is -1.78%.

Consider `CCN(CC)CCCNc1ccnc2cc3ccccc3cc12` [MMV665783], for which the “PGI (% of DB1127 at 10 uM)” value was -52.95%.

Consider `COCCn1c(C)nc2ccccc2c1=O` [MMV665904], for which the “PGI (% of DB1127 at 10 uM)” value is -26.17%.

Turning to `COc1nc(Nc2ccc(C(C)C)cc2)nc(OC)n1` [MMV007808], the “PGI (% of DB1127 at 10 uM)” value is -19.50%.

Regarding `O=C(CSc1ccc2nnc(-c3cccc(F)c3)n2n1)Nc1ccc2c(c1)OCO2` [MMV665918], the “PGI (% of DB1127 at 10 uM)” value is -24.34%.

Regarding `O=C(NCC(c1ccsc1)N1CCCCCC1)c1ccc(C(F)(F)F)cc1` (stereo not drawn) [MMV396672], the “PGI (% of DB1127 at 10 uM)” value was -34.18%.

Consider `O=C(NC1CCN(Cc2ccccc2)CC1)c1cc(-c2ccncc2)nc2ccc(Cl)cc12` [MMV020275], for which the “PGI (% of DB1127 at 10 uM)” value is on record as -18.74%.

Turning to `CN(C)c1ccc(C=Cc2nc(=O)c3ccccc3o2)cc1` [MMV006309], the “PGI (% of DB1127 at 10 uM)” value amounted to 24.63%.

For `Cl.OC(CNCc1ccccc1)Cn1c2ccccc2c2ccccc21` (stereo not drawn) [MMV000839], the “PGI (% of DB1127 at 10 uM)” value was -2.41%.

As to `CCOc1cc2c(cc1OCC)C(c1cc(C)c(O)c(C)c1)NCC2.Cl` (stereo not drawn) [MMV000483], the “PGI (% of DB1127 at 10 uM)” value is given as -22.26%.

On to `CCN1CCN(c2cc(C)c3cc(NC(=O)c4ccc(OC)c(OC)c4)ccc3n2)CC1` [MMV019074], for which the “PGI (% of DB1127 at 10 uM)” value is on record as -7.35%.

Turning to `CC(C)c1ccc(CNCC(O)c2ccccc2)cc1.Cl` (stereo not drawn) [MMV001049], the “PGI (% of DB1127 at 10 uM)” value turned out to be 12.43%.

As to `FC(F)(F)c1cccc(CNC2CCN(CCc3ccccc3)CC2)c1` [MMV665979], the “PGI (% of DB1127 at 10 uM)” value was -152.47%.

In the case of `CCOC(=O)C1=C(C)N=c2sc(=Cc3ccccc3O)c(=O)n2C1c1ccc(OC)c2ccccc12` (stereo not drawn) [MMV666604], the “PGI (% of DB1127 at 10 uM)” value is -9.67%.

Regarding `COc1ccc(C2c3ccc4ccccc4c3Oc3ncn(CCCn4ccnc4)c(=N)c32)cc1OC` (stereo not drawn) [MMV667490], the “PGI (% of DB1127 at 10 uM)” value is -1.19%.

Regarding `OC1CCCCC1C1(NC(=S)Nc2ccccc2)CCCCC1` (stereo not drawn) [MMV665980], the “PGI (% of DB1127 at 10 uM)” value is -9.51%.

On to `O=C(O)C1Cc2c([nH]c3ccccc23)C(c2ccc(Cl)cc2Cl)N1` (stereo not drawn) [MMV008138], for which the “PGI (% of DB1127 at 10 uM)” value is -14.05%.

`CCCCOC(=O)c1ccc(Nc2cc(C)nc3ccc(OC)cc23)cc1` [MMV665797]: the “PGI (% of DB1127 at 10 uM)” value is 0.71%.

Regarding `CCCCc1c(CCC)c(=N)c2ccccc2n1C.I` [MMV007764], the “PGI (% of DB1127 at 10 uM)” value amounted to 29.51%.

For the compound `CCOC(=O)C1=C(C)N=c2sc(=Cc3cc(Cl)ccc3O)c(=O)n2C1c1ccc(OC)cc1` (stereo not drawn) [MMV665971], the “PGI (% of DB1127 at 10 uM)” value was -11.30%.

For the compound `CCCN(CCC)CCCNC(=O)c1cc2c(-c3ccc(OC)c(OC)c3)nn(C)c2s1` [MMV000561], the “PGI (% of DB1127 at 10 uM)” value was -1.54%.

Take `CN(C)CCNc1cc(-c2ccccc2)nc2ccccc12` [MMV006704]: the “PGI (% of DB1127 at 10 uM)” value is recorded as -13.50%.

`CCOc1cc(Br)c(C(C)NC(=O)c2cccc(OC)c2)cc1OCC` (stereo not drawn) [MMV665796]: the “PGI (% of DB1127 at 10 uM)” value is on record as -1.06%.

As for `CCC(=O)Nc1nnc(Cc2ccc(OC)c(OC)c2)s1` [MMV020942], the “PGI (% of DB1127 at 10 uM)” value was -6.11%.

For `Cc1cc(N2CCN(C3CCCC3)CC2)n2c(nc3ccccc32)c1C#N` [MMV006706], the “PGI (% of DB1127 at 10 uM)” value is recorded as -7.43%.

`CC(C)CNC(=O)c1c(N)n(CCc2ccccc2F)c2nc3ccccc3nc12` [MMV396744]: the “PGI (% of DB1127 at 10 uM)” value was -10.23%.

`CSc1ccccc1C(=O)Nc1nc(-c2ccccn2)cs1` [MMV001246]: the “PGI (% of DB1127 at 10 uM)” value was -29.53%.

For `CCCCCCc1cc2cc(-c3csc(C=Cc4ccccc4)n3)c(=O)oc2cc1O` [MMV666692], the “PGI (% of DB1127 at 10 uM)” value is -4.22%.

`O=C(Nc1ccc(-c2nc3ccccc3[nH]2)cc1)c1ccc(Cl)c(Cl)c1` [MMV665840]: the “PGI (% of DB1127 at 10 uM)” value is -1.75%.

As for `CCOC(=O)c1cn(CC)c2cc(N3CCCCC3)c(F)cc2c1=O` [MMV665827], the “PGI (% of DB1127 at 10 uM)” value is reported as -20.29%.

As to `O=[N+]([O-])c1ccc(C=NNc2nc3ccccc3[nH]2)cc1` [MMV666607], the “PGI (% of DB1127 at 10 uM)” value is -48.05%.

For `C=CCc1c(C)nc2ccccc2c1O` [MMV006913], the “PGI (% of DB1127 at 10 uM)” value was -48.01%.

With `COc1ccccc1N1C(=N)SC(=Cc2ccc(OCc3ccccc3F)cc2)C1=O` [MMV007199], the “PGI (% of DB1127 at 10 uM)” value was -51.03%.

In the case of `Cc1cc(Nc2ccc(C)c(Cl)c2)n2nc(C(F)(F)F)nc2n1` [MMV665874], the “PGI (% of DB1127 at 10 uM)” value was -25.13%.

For the compound `Cc1cc(N(C)C)nc(Nc2ccc(NC(=O)Nc3ccccc3)cc2)n1` [MMV020243], the “PGI (% of DB1127 at 10 uM)” value came to 0.64%.

On to `Cl.c1ccc2c(NCCCCCCNc3c4c(nc5ccccc35)CCCC4)c3c(nc2c1)CCCC3` [MMV019555], for which the “PGI (% of DB1127 at 10 uM)” value was -3.16%.

For `CCOc1c(Cl)cc(CNC(C)C(O)c2ccccc2)cc1OC` (stereo not drawn) [MMV665857], the “PGI (% of DB1127 at 10 uM)” value is listed as -30.92%.
